Results as given in patent US6927231B2, “Use of creatine for the amelioration of oxidative stress” (2458781 Canada Inc., priority 2001, dated 2005).
Where “and” joins values, the source holds several entries; their conditions need not be identical. Identical values can stand only once.

Tests used:
[1] = Acid-soluble thiol concentration in the plasma during N-acetylcysteine ingestion; assay type: in vivo, human; conditions: healthy subject; NAC approximately 0.1-0.4 g per week, periods 1, 2, 5 and 6
Method: (§1) During the periods 1,2,5 and 6, the subject ingested small doses of N-acetylcysteine (NAC) (approximately 0.1-0.4 g per week) to adjust the acid-soluble thiol concentration in the plasma to an average value of about 15 μM, which corresponds approximately to the mean of healthy young subjects (see FIG. 1). In period 2, the subject ingested 3-4 times per week creatine at a dosis of approximately 3-4 g per week. In the period 4 and 6, the subject ingested creatine 6-7 times per week at a mean dose of approximately 6-8 g per week. Creatine was discontinued twice for one week each after the cystine level fell to a value of 40 and 41 μM, respectively. […] The P values illustrate the statistical significance for the differences between different treatment periods.

[2] = Plasma cystine concentration of a subject during creatine treatment periods; assay type: in vivo, human; conditions: healthy subject
Text: FIG. 3 illustrates the results of a study that is described in more detail in example 1. The ordinate (c) describes the plasma cystine concentration in μMol. The columns 1-6 describe the mean plasma cystine concentrations during 6 successive treatment periods of a subject as described in example 1.
as §1

Row | Compound | acid-soluble thiol concentration in the plasma, average value [1] | cystine level at which creatine was discontinued ([2]; creatine discontinued twice for one week each after the level fell to this value) | plasma cystine level ([2]; relatively small oral doses of creatine (approx. 3-8 g per week) during a total period of about 2.5 years, level corresponds to 20-35 year-old healthy subjects)
1 | CC(=O)N[C@@H](CS)C(=O)O [N-acetylcysteine] | about 15 μM | – | –
2 | CN(CC(=O)O)C(=N)N [creatine] | – | 40 µM and 41 µM | approximately 50 μ
